# Measurements as given in US20070238770A1, “PROCESS FOR PREPARING NOVEL CRYSTALLINE FORMS OF PELIGLITAZAR, NOVEL STABLE FORMS PRODUCED THEREIN AND FORMULATIONS” (Bristol-Myers Squibb Company, priority 2006, published 2007).
# How the values were obtained:
# [1] = Mechanical stress on crystal form; type: physicochemical; settings: mechanical stress applied
# [2] = Solid state stability under storage conditions (DSC, PXRD, HPLC); settings: for solid state stability (physically and chemically): RT/RL, 25° C./60% RH, 40° C./75% RH, 50° C., up to 2 weeks, DSC, PXRD, HPLC analysis
# [3] = Moisture-sorption isotherm; type: physicochemical; settings: from 25 to 75% RH at 25° C.
# Protocol: Moisture sorption isotherms were collected in a VTI SGA-100 Symmetric Vapor Analyzer using approximately 10 mg of sample. The sample was dried at 60° C. until the loss rate of 0.0005 wt %/min was obtained for 10 minutes. The sample was tested at 25° C. and 3 or 4, 5, 15, 25, 35, 45, 50, 65, 75, 85, and 95% RH. Equilibration at each RH was reached when the rate of 0.0003 wt %/min for 35 minutes was achieved or a maximum of 600 minutes.
# Solubility in water = type: physicochemical; settings: final pH 7.6
Compound,conversion of N-1 form to the N-2 form under mechanical stress [1],solid state stability (physically and chemically) [2],conversion of the N-1 form to the N-2 form (PXRD analysis) ([2]; under the storage conditions of b18),moisture uptake (hygroscopicity) [3],solubility in water (Solubility in water)
"COc1ccc(OC(=O)N(CC(=O)O)[C@@H](C)c2ccc(OCCc3nc(-c4ccccc4)oc3C)cc2)cc1 [Form N-1, peliglitazar]",will not cause conversion,stable,no conversion,negligible,–
COc1ccc(OC(=O)N(CC(=O)O)[C@@H](C)c2ccc(OCCc3nc(-c4ccccc4)oc3C)cc2)cc1.NCCCC[C@H](N)C(=O)O,–,stable,–,–,greater than 124 mg/mL
